{"source": "patent US9908877B2", "about": "“Imidazo[1,5-a]pyridinium ion fluorophores, and methods of making and using the same” (Indiana University Research and Technology Corporation, priority 2013, dated 2018)", "assay_type_in_all_cases": "physicochemical", "key": {"[1]": {"test": "Fluorescence quantum yield, integrating sphere", "experimental": "Method for Determining Quantum Yield\nQuantum yield is determined using an integrating sphere attached to a QM-4-CW Spectrofluorometer using FeliX32 software (Photon Technology International).\nThe compounds were analyzed at 298° K according to the Method for Obtaining Ultraviolet-Visible Light Spectrum (30 μM acetonitrile) to obtain the maximum absorbance wavelength (λabs,max), Method for Obtaining Fluorescence Emission Spectrum (30 μM acetonitrile) to obtain the maximum emission wavelength (λem,max) and Method for Determining Quantum Yield (ΦF) (30 μM acetonitrile) at the concentration, in the solvent, and with the counter ion indicated in Table 1. The compounds included hydrogen at each R group that is not otherwise specified.\nCompounds 6, 7, 9, 11-14 and 21 were analyzed according to: the Method for Obtaining Ultraviolet-Visible Light Spectrum to obtain the maximum absorbance wavelength (λabs,max), the Method for Obtaining Fluorescence Emission Spectrum to obtain the maximum emission wavelength (λem,max), and the Method for Determining Quantum Yield (ΦF) in the solvent and with the counter ion indicated in Table 3."}, "[2]": {"test": "Fluorescence response to trifluoroacetic acid / DBU in acetonitrile", "experimental": "A 30 μM solution of Compound 6 in acetonitrile was prepared by adding 99 μL of a stock solution of 3.04 mM Compound 6 in methanol to 10 mL of acetonitrile. An initial fluorescence emission spectrum of the solution was obtained and is illustrated by curve (i) in FIG. 1A.\nA series of approximately 13.8 μL aliquots of trifluoroacetic acid (TFA) were then added to the 30 μM solution of Compound 6 until a total concentration of 60.0 mM of TFA was present in the solution. (The total amount of TFA present in the solution corresponded to 2000 equivalents of acid per equivalent of Compound 6.) The fluorescence emission spectrum of the resulting solution was obtained and is illustrated by curve (ii) in FIG. 1A.\nA base, i.e., 1,8-diazabicyclo[5.4.0]undec-7-ene (DBU), was then added to the solution to neutralize the acid until a concentration of 90 mM DBU was obtained. The fluorescence emission spectrum of the resulting solution was obtained and is illustrated by curve (iii) in FIG. 1A. The fluorescence emission intensity at λem,max=565 nm increased as the amount of base present in the system increased and the fluorescence emission intensity at λem,max=405 nm decreased as the amount of base present in the system increased, which reflected Compound 6's ratiometric response to the changing base concentration in acetonitrile.\nA 30 μM solution of Compound 7 in acetonitrile was prepared by adding 84 μL of a stock solution of 3.58 mM Compound 7 in methanol to 10 mL of acetonitrile. The emission spectrum of the solution was then obtained and is illustrated by curve (i) in FIG. 1B.\nA series of approximately 13.8 μL aliquots of TFA were then added to the 30 μM solution of Compound 7 until a total concentration of 60.0 mM TFA was present in the solution (which corresponded to 2000 equivalents of acid per equivalent of Compound 7). The fluorescence emission spectrum of the solution was obtained and is illustrated by curve (ii) in FIG. 1B.\nAfter the 60 mM TFA concentration was achieved, DBU was gradually added to the solution until a total concentration of 90 mM DBU was present in the solution. The fluorescence spectrum of the solution was obtained and is illustrated by curve (iii) in FIG. 1B.\nAn aliquot of 50 μL of trifluoroacetic acid was then added to the system, and the fluorescence emission spectrum was obtained and is illustrated by the curved line with a peak at 360 nm in FIG. 6A.\nCompound 10 was placed in neat acetonitrile and its emission spectrum was monitored as trifluoroacetic acid was added to the acetonitrile in incremental amounts to achieve a solution that included an acid concentration ranging from 0 to 0.2 M. After each acid addition the sample was excited with radiation of a wavelength 340 nm, and its fluorescence emission spectrum was monitored. The results are illustrated in FIG. 7A.\nThe solution of Compound 10 in acetonitrile was titrated with trifluoroacetic acid (TFA). […] The first stage, which occurred with the addition of the initial aliquots of TFA, was a slight increase intensity at 580 nm, as illustrated in FIG. 7A. As more TFA was added to the system, a second transition occurred in which the emission at 580 nm began to decrease and as the emission at 400 nm began to increase, as illustrated in FIG. 7B. A plot of the emission intensity at 580 nm versus pH and at 400 nm versus pH is illustrated in FIG. 7C.\nCompounds 10, 11, and 12 were then each individually added, at a concentration of 30 μM, to acetonitrile and the emission spectrum of each was monitored. The compounds emitted at 600 nm with an intensity of about 7.57×10^5 arbitrary units (a.u.) in neat acetonitrile. […] FIG. 8B illustrates the emission properties of Compound 12."}, "[3]": {"test": "pKa from fluorescence intensity versus pH", "settings": "non-linear regression of fluorescence intensity versus pH, buffered water pH 2.5 to 7.5", "experimental": "Method for Determining pKa\nA pKa value is determined by plotting fluorescence intensity (Imax) at emission maxima against pH and fitting the result to the non-linear expression in equation (1) (i.e., eq.(1)). In eq (1), a and b are the molar coefficient of the acid (HA) and base (A^−) form, respectively, and c is the combined overall concentration of the acid and base form. i.e., c=[HA]+[A^−]."}, "[4]": {"test": "Fluorescence response to pH in buffered water", "settings": "buffered water, 298 K, pH from 7.5 to 2.5", "experimental": "Stock solutions of each compound (having a concentration of from 1-5 mM) were prepared by dissolving the corresponding salts of the compounds in methanol or 1V, N-dimethylformamide, and then diluting the same with acetonitrile or buffered water having a pH of from 2.5 to 7.5 derived from 0.2 M […] and 0.1 M citric acid, to achieve a sample solution having a compound concentration of 30.0 μM.\nThe emission spectrum for each sample was obtained. The results are illustrated by the plot in FIG. 2A.\nThe emission spectrum for each sample was obtained. […] The results are illustrated in the plot of FIG. 2B.\nThe fluorescence emission spectrum of Compound 8 in water having a pH of 2.5 was also obtained and is illustrated by the curved line with a peak at 360 nm in FIG. 5B.\nCompounds 10, 11, and 12 were each individually added, at a concentration of 30 μM, to water having a pH=7.5 and the emission spectra of each were obtained. […] As the pH was decreased from 7.5 to 2.5 in 0.5 pH unit increments, fluorescence emission at 600 nm remained relatively nonexistent and the intensity of the fluorescence emission at 400 nm increased in correlation to the decrease in pH. FIG. 8A illustrates the emission properties of Compound 12."}}, "note": "Several values for one entry are separate records, joined by “and”; a condition that tells them apart may be missing. Equal entries are not always repeated.", "data": [{"smiles": "CCN(CC)c1ccc(-c2c3cccc[n+]3cn2-c2ccc(OC)cc2)cc1.[Cl-]", "note": "[Compound 6, 1-(4-(diethylamino)phenyl)-2-(4-methoxyphenyl)-2H-imidazo[1,5-a]pyridin-4-ium chloride]", "values": [{"measurement": "[…]F (quantum yield)", "setting": "[1]; H2O (pH not given), 30 μM", "value": 16, "unit": "%"}, {"measurement": "[…]F (quantum yield)", "setting": "[1]; H2O pH = 2.5, 30 μM", "value": 31, "unit": "%"}, {"measurement": "[…]F (quantum yield)", "setting": "[1]; MeCN + 13.8 uL TFA, 30 μM", "value": 49, "unit": "%"}, {"measurement": "[…]F (quantum yield)", "setting": "[1]; MeCN, 30 μM", "value": 59, "unit": "%"}, {"measurement": "λem,max (fluorescence emission)", "setting": "[2]; 30 μM in acetonitrile in the absence of trifluoroacetic acid", "value": 565, "unit": "nm"}, {"measurement": "λem,max (fluorescence emission)", "setting": "[2]; 30 μM in acetonitrile in the presence of trifluoroacetic acid (60.0 mM TFA)", "value": "400 nm and 405 nm"}, {"measurement": "pKa", "setting": "[3]", "value": 5}, {"measurement": "λem,max of the emission that decreases as pH decreases", "setting": "[4]", "value": 580, "unit": "nm"}, {"measurement": "λem,max of the emission that increases as pH decreases", "setting": "[4]", "value": 400, "unit": "nm"}]}]}
